Results from ChEMBL document CHEMBL1201862, “PubChem BioAssay data set” (2004).
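Grown in 96-well plates, cells were treated for 48 hours with each compound at five concentrations. Insufficient inhibition: endpoint recorded as highest concentration tested. The concentration for 50% growth inhibition is given as GI50.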 Calls of active or inactive are those of the source. Cut-off read from the data, not from the text of the source: active = GI50 up to about 1.1 µM and inactive = higher.

Key:
Experiment in all cases: inhibition of tumour cell growth, NCI panel, 48 h
786-0 = system: 786-0
EKVX = system: EKVX
HT-29 = system: HT-29
Hs-578T = system: Hs-578T
K562 = system: K562
LOX IMVI = system: LOX IMVI
Malme-3M = system: Malme-3M
NCI-H23 = system: NCI-H23
NCI-H460 = system: NCI-H460
NCI-H522 = system: NCI-H522
OVCAR-8 = system: OVCAR-8
RXF 393 = system: RXF 393
SF-268 = system: SF-268
SF-295 = system: SF-295
SF-539 = system: SF-539
SK-OV-3 = system: SK-OV-3
SN12C = system: SN12C
T47D = system: T47D
U-251 = system: U-251
UACC-257 = system: UACC-257

Structure (SMILES)	GI50 (786-0)	GI50 (EKVX)	GI50 (HT-29)	GI50 (Hs-578T)	GI50 (K562)	GI50 (LOX IMVI)	GI50 (Malme-3M)	GI50 (NCI-H23)	GI50 (NCI-H460)	GI50 (NCI-H522)	GI50 (OVCAR-8)	GI50 (RXF 393)	GI50 (SF-268)	GI50 (SF-295)	GI50 (SF-539)	GI50 (SK-OV-3)	GI50 (SN12C)	GI50 (T47D)	GI50 (U-251)	GI50 (UACC-257)
BrC(Br)=C1C(=C(Br)Br)C(Br)C1Br (stereo not given)	0.163 µM (active)	2.08 µM (inactive)	0.362 µM (active)	2.51 µM (inactive)	0.158 µM (active)	0.0706 µM (active)	0.418 µM (active)	0.284 µM (active)	0.114 µM (active)	0.139 µM (active)	0.55 µM (active)	0.226 µM (active)	0.274 µM (active)	0.778 µM (active)	0.811 µM (active)	3.33 µM (inactive)	0.716 µM (active)	1.76 µM (inactive)	0.65 µM (active)	1.75 µM (inactive)
Cc1cccc(/C=N/NC(=S)NC2CCCCC2)n1	20 µM (inactive)	22.4 µM (inactive)	3.27 µM (inactive)	31.1 µM (inactive)	4.61 µM (inactive)	14 µM (inactive)	16.2 µM (inactive)	32.4 µM (inactive)	13.5 µM (inactive)	7.96 µM (inactive)	19.4 µM (inactive)	18.5 µM (inactive)	32 µM (inactive)	29 µM (inactive)	27.7 µM (inactive)	23.1 µM (inactive)	27.4 µM (inactive)	2.58 µM (inactive)	20.5 µM (inactive)	17.3 µM (inactive)
O=C(/C=C/c1ccc(O)c(O)c1)OCCOC(=O)/C=C/c1ccc(O)c(O)c1	42.3 µM (inactive)	26.7 µM (inactive)	21.4 µM (inactive)	39.4 µM (inactive)	24.8 µM (inactive)	28.6 µM (inactive)	42.1 µM (inactive)	29.4 µM (inactive)	37.2 µM (inactive)	20 µM (inactive)	32.2 µM (inactive)	22.6 µM (inactive)	27.7 µM (inactive)	21.5 µM (inactive)	22.4 µM (inactive)	24.2 µM (inactive)	25.9 µM (inactive)	24.7 µM (inactive)	25.3 µM (inactive)	17.9 µM (inactive)
N#CC1=C(N2CCCC2)NC(=O)CC1=O	> 100 µM (inactive)	> 100 µM (inactive)	> 100 µM (inactive)	> 100 µM (inactive)	> 100 µM (inactive)	> 100 µM (inactive)	> 100 µM (inactive)	> 100 µM (inactive)	> 100 µM (inactive)	> 100 µM (inactive)	> 100 µM (inactive)	> 100 µM (inactive)	> 100 µM (inactive)	> 100 µM (inactive)	> 100 µM (inactive)	> 100 µM (inactive)	> 100 µM (inactive)	74 µM (inactive)	> 100 µM (inactive)	> 100 µM (inactive)
C=CCn1c(=O)ccn(/C(=C/C(=O)OCC)C(=O)OCC)c1=O	3.48 µM (inactive)	17.2 µM (inactive)	10.4 µM (inactive)	22.5 µM (inactive)	3.08 µM (inactive)	6.7 µM (inactive)	11 µM (inactive)	17.1 µM (inactive)	16.1 µM (inactive)	2.44 µM (inactive)	15.6 µM (inactive)	14.1 µM (inactive)	19.7 µM (inactive)	> 52.4 µM (inactive)	24 µM (inactive)	25.7 µM (inactive)	8.73 µM (inactive)	5.13 µM (inactive)	14.4 µM (inactive)	15.2 µM (inactive)
CCOC(=O)/C1=C(\C)N(c2ccc(C)cc2)C(=O)c2ccccc2C(=O)c2c(O)ccc(O)c21	18.2 µM (inactive)	24.8 µM (inactive)	19.5 µM (inactive)	29.2 µM (inactive)	20.6 µM (inactive)	16.7 µM (inactive)	18.1 µM (inactive)	24.7 µM (inactive)	23.2 µM (inactive)	18.7 µM (inactive)	18.9 µM (inactive)	23.2 µM (inactive)	27.7 µM (inactive)	16.9 µM (inactive)	26.5 µM (inactive)	35.9 µM (inactive)	25.9 µM (inactive)	13.4 µM (inactive)	22.4 µM (inactive)	15.8 µM (inactive)
CCOC(=O)c1c(N2CCCC2)[nH]c(=O)c(C(c2c(O)c(C(=O)OCC)c(N3CCCC3)[nH]c2=O)C(C)C)c1O	61.8 µM (inactive)	> 100 µM (inactive)	> 100 µM (inactive)	42.1 µM (inactive)	> 100 µM (inactive)	> 100 µM (inactive)	> 100 µM (inactive)	71.1 µM (inactive)	> 100 µM (inactive)	43.5 µM (inactive)	> 100 µM (inactive)	43 µM (inactive)	72.4 µM (inactive)	> 100 µM (inactive)	> 100 µM (inactive)	> 100 µM (inactive)	> 100 µM (inactive)	> 100 µM (inactive)	37.8 µM (inactive)	> 100 µM (inactive)
CCCSc1ccc2[nH]c(N3C(=O)/C(=C/c4ccc(SC)cc4)N=C3c3ccccc3)cc2c1	26.2 µM (inactive)	18.2 µM (inactive)	22.7 µM (inactive)	28.1 µM (inactive)	0.355 µM (active)	35.7 µM (inactive)	40.6 µM (inactive)	> 34.4 µM (inactive)	18.3 µM (inactive)	16.1 µM (inactive)	> 44.6 µM (inactive)	19.9 µM (inactive)	29.8 µM (inactive)	29.7 µM (inactive)	14 µM (inactive)	41.5 µM (inactive)	> 40.5 µM (inactive)	32.1 µM (inactive)	27.1 µM (inactive)	17.3 µM (inactive)
COC(=O)C1=C(C(=O)OC)C2(/N=C(\Nc3ccccc3)c3ccccc3)N(c3ccc(OC)cc3)CC(c3ccccc3)N2O1 (stereo not given)	> 100 µM (inactive)	> 100 µM (inactive)	> 100 µM (inactive)	> 100 µM (inactive)	> 100 µM (inactive)	> 100 µM (inactive)	> 100 µM (inactive)	> 100 µM (inactive)	> 100 µM (inactive)	> 100 µM (inactive)	> 100 µM (inactive)	> 100 µM (inactive)	> 100 µM (inactive)	> 100 µM (inactive)	> 100 µM (inactive)	> 100 µM (inactive)	> 100 µM (inactive)	> 100 µM (inactive)	> 100 µM (inactive)	> 100 µM (inactive)
C/C=C/[C@H]1O[C@@](OC)([C@@H](C)[C@H](O)[C@H](C)[C@H]2OC(=O)/C(OC)=C/C(C)=C/[C@@H](C)[C@@H](O)[C@@H](C)[C@@H](O)[C@H](C)C/C(C)=C/C=C/[C@@H]2OC)CC(OC2CC(O)C(OC(N)=O)C(C)O2)[C@@H]1C (stereo not given in full)	< 0.01 µM (active)	< 0.01 µM (active)	< 0.01 µM (active)	2.08 µM (inactive)	< 0.01 µM (active)	< 0.01 µM (active)	< 0.01 µM (active)	1.99 µM (inactive)	< 0.01 µM (active)	< 0.01 µM (active)	< 0.01 µM (active)	2.39 µM (inactive)	< 0.01 µM (active)	< 0.01 µM (active)	< 0.01 µM (active)	7.48 µM (inactive)	0.589 µM (active)	< 0.01 µM (active)	< 0.01 µM (active)	< 0.01 µM (active)
CC1(C)CC(=O)c2[nH]c3ccccc3c2CC(=O)NCCc2cn1cn2	18.6 µM (inactive)	> 100 µM (inactive)	> 100 µM (inactive)	33.5 µM (inactive)	> 100 µM (inactive)	> 100 µM (inactive)	> 100 µM (inactive)	> 100 µM (inactive)	> 100 µM (inactive)	> 100 µM (inactive)	> 100 µM (inactive)	73.8 µM (inactive)	> 100 µM (inactive)	82.8 µM (inactive)	> 100 µM (inactive)	> 100 µM (inactive)	> 100 µM (inactive)	> 100 µM (inactive)	56.6 µM (inactive)	> 100 µM (inactive)
COC(=O)c1ccccc1C1CN=NC12Cc1ccc(C)cc1C2=O (stereo not given)	> 100 µM (inactive)	65.8 µM (inactive)	42.6 µM (inactive)	41.5 µM (inactive)	46.6 µM (inactive)	48.1 µM (inactive)	86.5 µM (inactive)	59 µM (inactive)	> 100 µM (inactive)	30.5 µM (inactive)	> 100 µM (inactive)	97.7 µM (inactive)	> 100 µM (inactive)	46.8 µM (inactive)	> 100 µM (inactive)	> 100 µM (inactive)	58.6 µM (inactive)	29.4 µM (inactive)	41.6 µM (inactive)	93.1 µM (inactive)
COC(=O)c1ccc(/C=N/c2cc(C)nn2-c2ccccc2)cc1	67 µM (inactive)	75.7 µM (inactive)	22.2 µM (inactive)	91.2 µM (inactive)	4.5 µM (inactive)	35.9 µM (inactive)	70.8 µM (inactive)	48.5 µM (inactive)	10.6 µM (inactive)	28.8 µM (inactive)	73.8 µM (inactive)	> 100 µM (inactive)	57.1 µM (inactive)	35.8 µM (inactive)	> 100 µM (inactive)	34.4 µM (inactive)	48.3 µM (inactive)	16.4 µM (inactive)	20.6 µM (inactive)	6.04 µM (inactive)
N#CC1CCCC2SC(F)(F)C(F)(F)C12 (stereo not given)	> 100 µM (inactive)	> 100 µM (inactive)	> 88.5 µM (inactive)	> 100 µM (inactive)	30.5 µM (inactive)	41.6 µM (inactive)	> 100 µM (inactive)	> 100 µM (inactive)	> 100 µM (inactive)	> 87.5 µM (inactive)	> 100 µM (inactive)	> 100 µM (inactive)	> 100 µM (inactive)	> 100 µM (inactive)	> 100 µM (inactive)	> 100 µM (inactive)	> 100 µM (inactive)	> 100 µM (inactive)	> 100 µM (inactive)	> 100 µM (inactive)
